According to PubChem BioAssay (NCI):
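Cultured in 96-well plates, cells were exposed to test compound for 48 hours across five concentrations. Here, GI50 denotes the concentration required for 50% inhibition of growth. TGI: concentration producing complete growth inhibition.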

Assays:
Test in all cases: NCI-60 cell line screen, 48 h
BT-549 breast = system: BT-549 breast
KM12 colon = system: KM12 colon
MCF7 breast = system: MCF7 breast
NCI-H522 lung = system: NCI-H522 lung
RXF 393 renal = system: RXF 393 renal
T-47D breast = system: T-47D breast
DMS 114 small cell lung = system: DMS 114 small cell lung
DMS 273 small cell lung = system: DMS 273 small cell lung
LXFL 529 NSCLC = system: LXFL 529 NSCLC
M19-MEL melanoma = system: M19-MEL melanoma
RXF-631 renal = system: RXF-631 renal
SNB-78 CNS = system: SNB-78 CNS
XF 498 CNS = system: XF 498 CNS

Row | SMILES | GI50 (BT-549 breast) | TGI (BT-549 breast) | GI50 (KM12 colon) | TGI (KM12 colon) | GI50 (MCF7 breast) | TGI (MCF7 breast) | GI50 (NCI-H522 lung) | TGI (NCI-H522 lung) | GI50 (RXF 393 renal) | TGI (RXF 393 renal) | GI50 (T-47D breast) | TGI (T-47D breast) | TGI (DMS 114 small cell lung) | TGI (DMS 273 small cell lung) | TGI (LXFL 529 NSCLC) | TGI (M19-MEL melanoma) | TGI (RXF-631 renal) | TGI (SNB-78 CNS) | TGI (XF 498 CNS)
1 | O=C1NC(=N[C@@H]2C[C@H]2c2ccccc2)S/C1=C\c1ccc2ncccc2c1 | 1.57 µM | 6.49 µM | 1.47 µM | > 12.7 µM | 0.795 µM | 4.95 µM | 0.776 µM | 3.12 µM | 1.12 µM | 4.84 µM | 1.81 µM | 13.8 µM | – | – | – | – | – | – | –
2 | Cc1cc2c(=O)cc(-c3ccc(C(=O)O)cc3)oc2c(C(N)=O)c1C | – | – | – | > 100 µM | – | – | – | > 100 µM | – | – | – | – | > 100 µM | > 100 µM | > 100 µM | > 100 µM | > 100 µM | > 100 µM | –
3 | CN1C[C@@H]2CC(=O)CC[C@@H]2C[C@H]1C#N | – | – | – | > 100 µM | – | – | – | > 100 µM | – | – | – | – | > 100 µM | – | > 100 µM | – | > 100 µM | – | > 100 µM
4 | Cc1cccc2c1NC(=O)[C@@H](NC(=O)[C@H](CCC(F)(F)F)[C@H](CCC(F)(F)F)C(N)=O)N=C2c1cccc(F)c1 | 16.2 µM | 66.1 µM | > 100 µM | > 100 µM | 24.1 µM | > 100 µM | 16.6 µM | 53.7 µM | 13.5 µM | 40.4 µM | 34.5 µM | > 100 µM | – | – | – | – | – | – | –
5 | COc1cc2cc(Oc3ccc(NC(=O)Nc4ccc(F)c(C(F)(F)F)c4)cc3)c(C)nc2cc1OCCN1CCOCC1 | 2.44 µM | 8.46 µM | 2.69 µM | 10.6 µM | 1.46 µM | 3.48 µM | 2.04 µM | 9.43 µM | 1.78 µM | 3.94 µM | 1.91 µM | 32.1 µM | – | – | – | – | – | – | –
6 | CCOC(=O)Nc1ccc2c3c(cccc13)-c1ccccc1-2 | > 100 µM | > 100 µM | 2.32 µM | > 100 µM | 1.64 µM | > 100 µM | > 100 µM | > 100 µM | 6.92 µM | > 100 µM | 2.57 µM | > 100 µM | – | – | – | – | – | – | –
7 | O=C(O)c1ccc(NCn2nc(-c3ccccc3O)oc2=S)cc1O | > 100 µM | > 100 µM | > 100 µM | > 100 µM | > 100 µM | > 100 µM | > 100 µM | > 100 µM | > 100 µM | > 100 µM | > 100 µM | > 100 µM | – | – | – | – | – | – | –
